Test results reported in paper PMC7897990, “TriTOX: A novel Trichomonas vaginalis assay platform for high-throughput screening of compound libraries” (International Journal for Parasitology: Drugs and Drug …, 2021).
Like-named read-outs stand apart in the source and are kept apart here. Starred links: 1 amine or outer side, 2 acyl side, 3 side chain; linkers in the order of their positions; H or OH if unused. Positions of bridges follow the written chain, without caps; N, C: chain ends. Non-standard residues stand in square brackets, D forms with d. Residues, ends and D or L forms follow the SMILES beside them. Chains are numbered I, II in the order given. hTyr(3S-OH,4S-OH,3'-OSO3H) = N[C@H](C(=O)O)[C@H](O)[C@@H](O)c1ccc(O)c(OS(=O)(=O)O)c1; Actinocin(9to1) = Cc1c2oc3c(C)ccc(C(=O)[*:1])c3nc-2c(C(=O)[*:2])c(N)c1=O; Orn(4R-OH,5R-OH) = O=C([C@H](C[C@@H](O)[C@@H](O)N[*:3])N[*:1])[*:2]; Pro(3S-OH,4S-Me) = C[C@H]1CN[C@H](C(=O)O)[C@H]1O; Gln(3R-OH) = NC(=O)C[C@@H](O)[C@H](N)C(=O)O; Hyp = O=C(O)[C@@H]1C[C@@H](O)CN1; NMeV = CN[CH](C(=O)O)C(C)C; GABA = NCCCC(=O)O; Sar = CNCC(=O)O

Columns and labels:
[1] = tested on: nontumorigenic neonatal foreskin fibroblast (NFF) cell line
[2] = tested on: Trichomonas vaginalis G3 trophozoites
[3] = HTS, parasite screen at 1 µg/mL, replicate 1
[4] = HTS, parasite screen at 1 µg/mL, replicate 1, raw absorbance
[5] = HTS, parasite screen at 1 µg/mL, replicate 2
[6] = HTS, parasite screen at 1 µg/mL, replicate 2, raw absorbance
[7] = NFF_NS1 screen at 5 µg/mL, NFF cells
[8] = parasite screen at 1 µg/mL, replicate 1
[9] = parasite screen at 1 µg/mL, replicate 2
[10] = NFF fibroblast screen at 5 µg/mL, A = active, I = inactive
[11] = NFF_NS1 screen 5 µg/mL, single concentration
[12] = HTS single concentration, parasite screen 1 µg/mL, replicate 1
[13] = HTS single concentration, parasite screen 1 µg/mL, replicate 2

Row | Structure (SMILES) | T.vaginalis_%inb_Rep1 [2, 3] [%] | T.vaginalis_%inb_Rep2 [2, 5] [%] | NFF_Activity [1, 7] | T.vaginalis_%inb_Rep1 [2, 8] [%] | T.vaginalis_%inb_Rep2 [2, 9] [%] | other results
1 | COC12c3c(C)cc(O)c4c(=O)occ(c34)C(=O)C1C13COC(=O)c4c(O)cc(C)c(c41)C(=O)C2C3OC(C)=O (stereo not drawn) [Duclauxin] | 14.59 | 17.79 | – | – | – | NFF_Activity ([1]; NFF_NS1 screen at 5 µg/mL): I (otherwise these were reported as inactive (I)); T.vaginalis_Absorbance_Rep1 [2, 4]: 0.98; T.vaginalis_Absorbance_Rep2 [2, 6]: 0.866
2 | CC[C@H]1OC(=O)[C@H](C)[C@@H](O[C@H]2C[C@@](C)(OC)[C@@H](O)[C@H](C)O2)[C@H](C)[C@@H](O[C@@H]2O[C@H](C)C[C@H](N(C)C)[C@H]2O)[C@](C)(O)C[C@@H](C)/C(=N\OCOCCOC)[C@H](C)[C@@H](O)[C@]1(C)O [BIA-R1315] | – | – | I (otherwise these were reported as inactive (I)) | 1.36 | 5.85 | –
3 | C/C=C/c1cc2c(c(=O)o1)[C@H](O)[C@@H](O)[C@H](C)O2 [BIA-R1896] | – | – | I (otherwise these were reported as inactive (I)) | 13.39 | 5.58 | –
4 | CN(C)[C@@H]1C(O)=C(C(=O)NCN2CCCC2)C(=O)[C@@]2(O)C(O)=C3C(=O)c4c(O)cccc4[C@@](C)(O)[C@H]3C[C@@H]12 [BIA-R1460] | – | – | I (otherwise these were reported as inactive (I)) | 13.95 | 12.12 | –
5 | Cc1cc(=O)c(O)cc2c1C[C@@H]1CC(C)(C)/C=C/C[C@@]3(C)Oc4cc(O)c(=O)cc(C)c4C[C@@H]3C[C@@H](O)[C@]1(C)O2 [Eupenifeldin] | 14.05 | 13.74 | – | – | – | NFF_Activity ([1]; NFF_NS1 screen at 5 µg/mL): A (active (A) compounds having >25% inhibitory activity); T.vaginalis_Absorbance_Rep1 [2, 4]: 0.97; T.vaginalis_Absorbance_Rep2 [2, 6]: 0.81
6 | CCCCCCCCCCCCCC(=O)N[C@H]1CCOC1=O [BIA-T1499] | – | – | I (otherwise these were reported as inactive (I)) | 6.40 | 13.16 | –
7 | C[C@@H](O)[C@@H]1NC(=O)[C@@H](N)C[C@@H](O)[C@@H](O)NC(=O)[C@@H]2[C@@H](O)[C@@H](C)CN2C(=O)[C@H]([C@H](O)CC(N)=O)NC(=O)[C@H]([C@H](O)[C@@H](O)c2ccc(O)c(OS(=O)(=O)O)c2)NC(=O)[C@@H]2C[C@@H](O)CN2C1=O [FR 179642] (H-[Orn(4R-OH,5R-OH)]T[Hyp][hTyr(3S-OH,4S-OH,3'-OSO3H)][Gln(3R-OH)][Pro(3S-OH,4S-Me)]; lactam 1-C) | 12.98 | 14.17 | – | – | – | NFF_Activity ([1]; NFF_NS1 screen at 5 µg/mL): I (otherwise these were reported as inactive (I)); T.vaginalis_Absorbance_Rep1 [2, 4]: 0.95; T.vaginalis_Absorbance_Rep2 [2, 6]: 0.816
8 | CC(C)[C@H]1NC(=O)[C@H](Cc2ccccc2)NC(=O)[C@@H](C(C)C)NC(=O)[C@@H](C)NC(=O)CCCNC(=O)[C@@H](Cc2c[nH]c3ccccc23)NC(=O)[C@@H](C)NC1=O [Unguisin A] (cyclo(F[dV][dA][dW][GABA][dA][dV])) | 9.07 | 14.50 | – | – | – | NFF_Activity [1, 10]: I (otherwise these were reported as inactive (I))
9 | Cc1cc(O)cc2oc(=O)c3c(O)cc(O)cc3c12 [BIA-A1926] | – | – | – | – | – | NFF_Activity [1, 11]: I (otherwise these were reported as inactive (I)); T.vaginalis_%inb_Rep1 [2, 12]: 6.66%; T.vaginalis_%inb_Rep2 [2, 13]: 9.26%
10 | CN[C@@H]1C[C@H]2O[C@@](C)([C@@H]1OC)n1c3ccccc3c3c4c(c5c6ccccc6n2c5c31)C(=O)N[C@H]4O [UCN-02] | 9.65 | 20.96 | – | – | – | NFF_Activity [1, 10]: A (active (A) compounds having >25% inhibitory activity)
11 | Cc1c2oc3c(C)ccc(C(=O)NC4C(=O)NC(C(C)C)C(=O)N5CCCC5C(=O)N(C)CC(=O)N(C)C(C(C)C)C(=O)OC4C)c3nc-2c(C(=O)NC2C(=O)NC(C(C)C)C(=O)N3CCCC3C(=O)N(C)CC(=O)N(C)C(C(C)C)C(=O)OC2C)c(N)c1=O (stereo not drawn) [BIA-A1185] (I: TVP[Sar][NMeV] / II: TVP[Sar][NMeV]; ester I:1-I:C, II:1-II:C; linker I:N-II:N via Actinocin(9to1); configuration not given here) | – | – | – | – | – | NFF_Activity [1, 11]: I (otherwise these were reported as inactive (I)); T.vaginalis_%inb_Rep1 [2, 12]: 0.00%; T.vaginalis_%inb_Rep2 [2, 13]: 40.20%
12 | CC1=C(O)C(=O)[C@@H]2O[C@@H]2C1=O [BIA-T1695] | – | – | A (active (A) compounds having >25% inhibitory activity) | 9.91 | 12.25 | –
13 | CO[C@H]1C[C@H](O[C@H]2[C@H](C)O[C@@H](O[C@@H]3/C(C)=C/C[C@@H]4C[C@@H](C[C@]5(C=C[C@H](C)[C@@H](C(C)C)O5)O4)OC(=O)[C@@H]4C=C(C)[C@@H](O)[C@H]5OC/C(=C\C=C\[C@@H]3C)[C@]54O)C[C@@H]2OC)O[C@@H](C)[C@@H]1O [BIA-A1011] | – | – | – | – | – | NFF_Activity [1, 11]: I (otherwise these were reported as inactive (I)); T.vaginalis_%inb_Rep1 [2, 12]: 14.65%; T.vaginalis_%inb_Rep2 [2, 13]: 18.51%
14 | CO[C@H]1C[C@H](O[C@H]2[C@H](C)O[C@@H](O[C@@H]3/C(C)=C/C[C@@H]4C[C@@H](C[C@]5(CC[C@H](C)[C@@H](C(C)C)O5)O4)OC(=O)[C@@H]4C=C(C)[C@@H](O)[C@H]5OC/C(=C\C=C\[C@@H]3C)[C@]54O)C[C@@H]2OC)O[C@@H](C)[C@@H]1O [BIA-I1117] | – | – | – | – | – | NFF_Activity ([1]; NFF cells, screen at 5 µg/mL): I (otherwise these were reported as inactive (I)); T.vaginalis_%inb_Rep1 ([2]; replicate 1; parasite screen at 1 µg/mL): 14.71%; T.vaginalis_%inb_Rep2 ([2]; replicate 2; parasite screen at 1 µg/mL): 14.82%
15 | COC(=O)C1=CO[C@@H](C)[C@@H]2CN3CCc4c([nH]c5cc(OC)c(OC)cc45)[C@H]3C[C@H]12 [BIA-R1946] | – | – | I (otherwise these were reported as inactive (I)) | 11.06 | 13.59 | –
